Source: ChEMBL document CHEMBL1201862, “PubChem BioAssay data set” (2004)
Calls of active or inactive are those of the source. No stated cut-off is given here; in the data, actives have a measured IC50 and inactives only a lower limit.

Molecular target: Envelope glycoprotein gp160 (Human immunodeficiency virus 1, UniProt Q6QLK5)
Experiment: cell-free HIV fusion peptide-binding blockers – biochemical, uHTS, fluorescence dequenching, […] (AID 1986)

Sequence of Envelope glycoprotein gp160 (Q6QLK5 whole entry, the tested form may be a part): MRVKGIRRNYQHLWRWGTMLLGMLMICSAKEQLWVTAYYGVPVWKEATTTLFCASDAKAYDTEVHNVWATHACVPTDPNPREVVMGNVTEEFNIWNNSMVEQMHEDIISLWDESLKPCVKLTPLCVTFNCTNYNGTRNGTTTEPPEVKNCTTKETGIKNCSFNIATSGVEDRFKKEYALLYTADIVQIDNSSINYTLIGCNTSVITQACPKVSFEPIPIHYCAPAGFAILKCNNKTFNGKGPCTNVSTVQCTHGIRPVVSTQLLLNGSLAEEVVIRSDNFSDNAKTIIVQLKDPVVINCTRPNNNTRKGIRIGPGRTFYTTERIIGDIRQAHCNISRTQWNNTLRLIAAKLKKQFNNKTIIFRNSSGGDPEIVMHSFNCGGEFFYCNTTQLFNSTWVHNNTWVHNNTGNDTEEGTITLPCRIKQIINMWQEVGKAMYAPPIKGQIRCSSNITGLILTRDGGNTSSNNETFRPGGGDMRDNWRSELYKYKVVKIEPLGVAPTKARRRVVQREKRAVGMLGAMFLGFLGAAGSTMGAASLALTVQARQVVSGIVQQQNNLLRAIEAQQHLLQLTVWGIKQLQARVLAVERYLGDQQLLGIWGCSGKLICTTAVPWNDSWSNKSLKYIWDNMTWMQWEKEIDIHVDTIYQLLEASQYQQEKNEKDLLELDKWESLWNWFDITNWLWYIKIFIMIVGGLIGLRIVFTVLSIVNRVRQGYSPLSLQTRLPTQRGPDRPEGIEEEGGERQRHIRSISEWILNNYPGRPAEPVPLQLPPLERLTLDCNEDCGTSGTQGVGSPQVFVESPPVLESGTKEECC

Row | Structure (SMILES) | IC50
1 | COc1ccc(OC)c(/C=C2\SC(=S)N(NS(=O)(=O)c3ccc(C)cc3)C2=O)c1 | 21.4 µM (active)
2 | CC1=C(C#N)C(=O)NC(=O)/C1=C\c1ccc(-c2cc(C)c(C)cc2[N+](=O)[O-])o1 | 21.8 µM (active)
3 | COc1ccc(-c2csc(NC(=O)CSc3nc(C)nc4sc(C(=O)O)c(C)c34)n2)cc1 | 9.37 µM (active)
